Reference: patent US20090275610A1, “TRICYCLIC OPIOID MODULATORS” (priority 2005, published 2009)
Values joined by “and” are separate entries in the source; they are usually repeats but may differ in a detail not shown here. Equal entries are not always repeated. Where two headings read alike, the source gives them in different places.

Key:
mu opioid receptor = biological target: T1, mu opioid receptor (Rattus norvegicus, UniProt P33535); assay: Rat brain mu opioid receptor binding assay; settings: rMOR (Ki, nM): Rat mu opioid receptor binding constant, rat forebrain membranes; [3H]DAMGO, 25° C., 2.5 h
T1 construct: the forebrains were homogenized in Tris buffer in a Teflon®-glass homogenizer; from tissue; host or cells: forebrain of male Wistar rats (particulate membrane preparation)
T1 sequence (P33535 whole entry): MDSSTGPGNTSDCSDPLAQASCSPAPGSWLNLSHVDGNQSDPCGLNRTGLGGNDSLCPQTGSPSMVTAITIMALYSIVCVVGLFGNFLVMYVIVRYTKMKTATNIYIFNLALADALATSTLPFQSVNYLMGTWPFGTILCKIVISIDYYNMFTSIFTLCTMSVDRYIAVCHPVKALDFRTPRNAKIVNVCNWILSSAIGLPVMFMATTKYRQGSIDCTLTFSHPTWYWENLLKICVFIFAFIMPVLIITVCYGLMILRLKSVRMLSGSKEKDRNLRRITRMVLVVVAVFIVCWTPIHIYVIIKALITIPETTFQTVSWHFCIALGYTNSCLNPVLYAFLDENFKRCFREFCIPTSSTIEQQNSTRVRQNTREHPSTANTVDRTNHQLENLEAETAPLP
Method: Rat Brain Mu Opioid Receptor Binding Assay
(§1) Procedure: Male, Wistar rats (150-250 g, VAF, Charles River, Kingston, N.Y.) were killed by CO2, and their brains removed and placed immediately in ice cold Tris HCl buffer (50 mM, pH 7.4). The forebrains were separated from the remainder of the brain by a coronal transection, beginning dorsally at the colliculi and passing ventrally through the midbrain-pontine junction. After dissection, the forebrains were homogenized in Tris buffer in a Teflon®-glass homogenizer. The homogenate was diluted to a concentration of 1 g of forebrain tissue per 80 mL Tris and centrifuged at 39,000×g for 10 min. The pellet was resuspended in the same volume of Tris buffer containing 5 mM MgCl2 with several brief pulses from a Polytron homogenizer. This particulate preparation was used for the delta opioid binding assays.
(§2) Analysis: The data from the scintillation counter were used to calculate either the % inhibition compared to control binding (when only a single concentration of test compound was evaluated) or a Ki value (when a range of concentrations tested). Percent inhibition was calculated as: [(total dpm−test compound dpm)/(total dpm−nonspecific dpm)]*100. Kd and Ki values were calculated using GraphPad PRISM data analysis program.

[1] = biological target: T2, hMOR (CHO-hMOR cell membranes) (Homo sapiens, UniProt P35372); assay: [35S]GTPγS binding assay in CHO-hMOR cell membranes; format: biochemical; settings: for mu GTPγS binding Rel Eff: value in parentheses
T2 construct: host or cells: CHO cells expressing hMOR (purchased membranes)
T2 sequence (P35372 whole entry): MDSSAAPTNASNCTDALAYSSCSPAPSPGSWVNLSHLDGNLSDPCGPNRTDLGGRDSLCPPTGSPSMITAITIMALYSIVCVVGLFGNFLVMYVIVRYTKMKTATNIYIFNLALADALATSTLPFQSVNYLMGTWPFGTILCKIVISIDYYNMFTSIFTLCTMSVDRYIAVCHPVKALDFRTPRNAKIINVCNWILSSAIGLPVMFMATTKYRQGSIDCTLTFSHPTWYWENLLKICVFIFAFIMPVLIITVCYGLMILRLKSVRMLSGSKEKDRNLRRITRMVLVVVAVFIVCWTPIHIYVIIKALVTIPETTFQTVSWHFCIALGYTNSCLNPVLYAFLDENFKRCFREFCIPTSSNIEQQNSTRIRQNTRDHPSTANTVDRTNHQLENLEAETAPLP
Method: Functional Assay: [^35S]GTPγS Binding Assays in CHO-hMOR Cell Membranes
Methods: CHO-hMOR cell membranes were purchased from Receptor Biology, Inc. (Baltimore, Md.). About 10 mg/mL of membrane protein was suspended in 10 mM TRIS-HCl pH 7.2, 2 mM EDTA, 10% sucrose, and the suspension kept on ice. A 1 mL volume of membranes was added to 15 mL cold binding assay buffer containing 50 mM HEPES, pH 7.6, 5 mM MgCl2, 100 mM NaCl, 1 mM DTT and 1 mM EDTA. The membrane suspension was homogenized with a Polytron and centrifuged at 3,000 rpm for 10 min. The supernatant was then centrifuged at 18,000 rpm for 20 min. The pellet was resuspended in 10 mL assay buffer with a Polytron. The membranes were preincubated with wheat germ agglutinin coated SPA beads (Amersham) at 25° C. for 45 min in the assay buffer. The SPA bead (5 mg/mL) coupled membranes (10 μg/mL) were then incubated with 0.5 nM [^35S]GTPγS in the assay buffer. […] A range of concentrations of receptor agonist was used to stimulate [^35S]GTPγS binding. Both basal and non-specific binding was tested in the absence of agonist; non-specific binding determination included 10 μM unlabeled GTPγS.
Compounds were tested for function as antagonists by evaluating their potential to inhibit agonist-stimulated GTPγS binding. Radioactivity was quantified on a Packard TopCount. The following parameters were calculated:
(§3) EC50 values were calculated using GraphPad Prism.

delta opioid receptor = biological target: T3, delta opioid receptor (Rattus norvegicus, UniProt P33533); assay: Rat brain delta opioid receptor binding assay; settings: rDOR (Ki, nM): Rat delta opioid receptor binding constant, rat forebrain membranes; [3H]DPDPE or [3H]naltrindole, 25° C., 2.5 h
T3 construct: the forebrains were homogenized in Tris buffer in a Teflon®-glass homogenizer; from tissue; host or cells: forebrain of male Wistar rats (particulate membrane preparation)
T3 sequence (P33533 whole entry): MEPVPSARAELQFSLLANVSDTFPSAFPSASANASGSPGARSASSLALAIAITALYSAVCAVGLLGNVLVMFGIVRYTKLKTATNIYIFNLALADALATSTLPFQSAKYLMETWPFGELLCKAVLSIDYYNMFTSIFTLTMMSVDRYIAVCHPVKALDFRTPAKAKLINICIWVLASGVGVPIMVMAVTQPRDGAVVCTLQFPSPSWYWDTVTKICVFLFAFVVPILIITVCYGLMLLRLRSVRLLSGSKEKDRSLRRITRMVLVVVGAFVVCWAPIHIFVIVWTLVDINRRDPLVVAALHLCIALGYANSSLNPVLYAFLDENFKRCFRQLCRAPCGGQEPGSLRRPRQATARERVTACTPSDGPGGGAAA
Method: Rat Brain Delta Opioid Receptor Binding Assay
as §1
as §2, with “concentrations was” for “concentrations”

[2] = biological target: T4, delta opioid receptor (NG108-15 cell membranes) (Mus musculus, UniProt P32300); assay: [35S]GTPγS binding assay in NG108-15 cell membranes (delta opioid); format: biochemical; settings: for delta GTPγS binding Rel Eff: value in parentheses
T4 construct: NG108-15 cell membranes were purchased from Applied Cell Sciences (Rockville, Md.); host or cells: NG108-15 cell membranes (purchased)
T4 sequence (P32300 whole entry): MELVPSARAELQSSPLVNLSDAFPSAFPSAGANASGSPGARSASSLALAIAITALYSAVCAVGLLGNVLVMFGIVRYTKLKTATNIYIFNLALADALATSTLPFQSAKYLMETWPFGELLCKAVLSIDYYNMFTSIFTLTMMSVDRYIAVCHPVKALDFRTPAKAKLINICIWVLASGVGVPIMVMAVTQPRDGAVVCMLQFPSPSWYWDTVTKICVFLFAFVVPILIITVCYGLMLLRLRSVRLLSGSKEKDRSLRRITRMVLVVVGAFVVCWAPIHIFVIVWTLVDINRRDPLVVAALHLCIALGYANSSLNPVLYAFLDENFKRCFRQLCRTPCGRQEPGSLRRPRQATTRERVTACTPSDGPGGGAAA
Method: Functional Assay: [^35S]GTPγS Binding Assay in NG108-15 Cell Membranes (Delta Opioid)
Methods: NG108-15 cell membranes were purchased from Applied Cell Sciences (Rockville, Md.). A sample (8 mg/mL) of membrane protein suspended in 10 mM TRIS-HCl pH 7.2, 2 mM EDTA, 10% sucrose. Membranes were maintained at 4-8° C. A 1 mL volume of membranes was added into 10 mL cold binding assay buffer. The assay buffer contained 50 mM Tris, pH 7.6, 5 mM MgCl2, 100 mM NaCl, 1 mM DTT and 1 mM EGTA. The membrane suspension was homogenized twice with a Polytron, and centrifuged at 3000 rpm for 10 min. The supernatant was then centrifuged at 18,000 rpm for 20 min. Ten mL assay buffer was added into the pellet containing tube. The pellet and buffer were mixed with a Polytron.
Incubation procedure: The pellet membranes (75 μg/mL) were preincubated with SPA (10 mg/mL) at 25° C. for 45 min in the assay buffer. The SPA (5 mg/mL) coupled with membranes (37.5 μg/mL) was then incubated with 0.1 nM [^35S]GTPγS in the same Tris buffer containing 100 μM GDP in total volume of 200 μL. Increasing concentrations of receptor agonists were used to stimulate [^35S]-GTPγS binding. The basal binding was tested in the absence of agonists and non-specific binding was tested in the presence of 10 μM unlabeled GTPγS. The data were analyzed on a Packard Top Count.
% of Basal=(stimulated−non specific)*100/(basal−non specific).
as §3

[3] = read-out: delta GTPγS binding EC50

Oc1cccc2c1Oc1ccccc1C2=C1CC2CCC(C1)N2 (racemic) [Cpd 2, 9-(8-Aza-bicyclo[3.2.1]oct-3-ylidene)-9H-xanthen-4-ol]
Ki (mu opioid receptor): 7 nM | EC50 [1]: 382 nM | mu GTPγS binding Rel Eff ([1]; CHO-hMOR cell membranes): 0.37 | Ki (delta opioid receptor): 0.48 nM | EC50 ([2]; delta GTPγS binding EC50 (nM)): 50.9 nM | delta GTPγS binding Rel Eff [2]: 0.67

Oc1cccc2c1Oc1ccccc1C2=C1CC2CCC(C1)N2 (single isomer, unassigned) [Cpd 8, 9-(8-Azabicyclo[3.2.1]oct-3-ylidene)-9H-xanthen-4-ol]
Ki (mu opioid receptor): 3.5 nM | EC50 [1]: 902 nM | Ki (delta opioid receptor): 0.56 nM | EC50 ([2]; delta GTPγS binding EC50 (nM)): 9.98 nM

NC(=O)c1cccc2c1Oc1ccccc1C2=C1CC2CCC(C1)N2 (single isomer, unassigned) [Cpd 37, 9-(8-Azabicyclo[3.2.1]oct-3-ylidene)-9H-xanthene-4-carboxylic acid amide]
Ki (mu opioid receptor): 29 nM | EC50 [1]: 878 nM | Ki (delta opioid receptor): 4 nM | EC50 ([2]; delta GTPγS binding EC50 (nM)): 156 nM

Oc1cccc2c1Oc1ccccc1C2=C1CC2CCC(C1)N2Cc1ccccc1 (single isomer, unassigned) [Cpd 45, 9-(8-Benzyl-8-azabicyclo[3.2.1]oct-3-ylidene)-9H-xanthen-4-ol]
Ki (mu opioid receptor): 11.4 nM | Ki (delta opioid receptor): 9.62 nM | EC50 ([2]; delta GTPγS binding EC50 (nM)): 1420 nM

Oc1cccc2c1Oc1ccccc1C2=C1CC2CCC(C1)N2Cc1ccccc1 (single isomer, unassigned) [Cpd 46, 9-(8-Benzyl-8-azabicyclo[3.2.1]oct-3-ylidene)-9H-xanthen-4-ol]
Ki (mu opioid receptor): 0.19 nM | Ki (delta opioid receptor): 0.03 nM | EC50 [2, 3]: 10.2 nM

O=C(Nc1ccccc1)c1cccc2c1Oc1ccccc1C2=C1CC2CCC(C1)N2 (single isomer, unassigned) [Cpd 48, 9-(8-Azabicyclo[3.2.1]oct-3-ylidene)-9H-xanthene-4-carboxylic acid phenylamide]
Ki (mu opioid receptor): 3.58 nM | Ki (delta opioid receptor): 3.71 nM | EC50 [2, 3]: 101 nM

Oc1cccc2c1Oc1ccccc1C2=C1CC2CCC(C1)N2Cc1cccnc1 (single isomer, unassigned) [Cpd 50, 9-(8-Pyridin-3-ylmethyl-8-azabicyclo[3.2.1]oct-3-ylidene)-9H-xanthen-4-ol]
Ki (mu opioid receptor): 0.68 nM | Ki (delta opioid receptor): 0.08 nM | EC50 [2, 3]: 218 nM

CN1C2CCC1CC(=C1c3ccccc3Oc3c(O)cccc31)C2 (single isomer, unassigned) [Cpd 51, 9-(8-Methyl-8-azabicyclo[3.2.1]oct-3-ylidene)-9H-xanthen-4-ol]
Ki (mu opioid receptor): 138 nM | Ki (delta opioid receptor): 11.2 nM | EC50 ([2]; delta GTPγS binding EC50 (nM)): 59.2 nM

O=C(NCCc1ccccc1)c1cccc2c1Oc1ccccc1C2=C1CC2CCC(C1)N2 (single isomer, unassigned) [Cpd 56, 9-(8-Azabicyclo[3.2.1]oct-3-ylidene)-9H-xanthene-4-carboxylic acid phenethylamide]
Ki (mu opioid receptor): 6.96 nM | Ki (delta opioid receptor): 49.6 nM | EC50 [2, 3]: 40.1 nM

Oc1cccc2c1Oc1ccccc1C2=C1CC2CCC(C1)N2Cc1ccoc1 (single isomer, unassigned) [Cpd 58, 9-(8-Furan-3-ylmethyl-8-azabicyclo[3.2.1]oct-3-ylidene)-9H-xanthen-4-ol]
Ki (mu opioid receptor): 0.45 nM | Ki (delta opioid receptor): 0.1 nM | EC50 [2, 3]: 2.6 nM

NC(=O)c1cccc2c1Oc1ccccc1C2=C1CC2CCC(C1)N2 [Cpd 3, 9-(8-Aza-bicyclo[3.2.1]oct-3-ylidene)-9H-xanthene-4-carboxylic acid amide]
Ki (mu opioid receptor): 29.4 nM | EC50 [1]: 3960 nM | Ki (delta opioid receptor): 3.2 nM | EC50 ([2]; delta GTPγS binding EC50 (nM)): 42 nM

NC(=O)c1cccc2c1Oc1ccccc1C2=C1CC2CCC(C1)N2Cc1ccoc1 [Cpd 4, 9-(8-Furan-3-ylmethyl-8-azabicyclo[3.2.1]oct-3-ylidene)-9H-xanthene-4-carboxylic acid amide]
Ki (mu opioid receptor): 2.5 nM | EC50 ([1]; CHO-hMOR cell membranes, read-out: mu GTPγS binding EC50): 4040 nM | Ki (delta opioid receptor): 2.3 nM | EC50 [2, 3]: 9.4 nM

CNC(=O)c1cccc2c1Oc1ccccc1C2=C1CC2CCC(C1)N2 [Cpd 10, 9-(8-Azabicyclo[3.2.1]oct-3-ylidene)-9H-xanthene-4-carboxylic acid methylamide]
Ki (mu opioid receptor): 27 nM and 51 nM | EC50 [1]: > 10000 nM | EC50 ([2]; delta GTPγS binding EC50 (nM)): 617 nM

O=C(Nc1ccccc1)c1cccc2c1Oc1ccccc1C2=C1CC2CCC(C1)N2 [Cpd 12, 9-(8-Azabicyclo[3.2.1]oct-3-ylidene)-9H-xanthene-4-carboxylic acid phenylamide]
Ki (mu opioid receptor): 32 nM | EC50 [1]: 611 nM | mu GTPγS binding Rel Eff ([1]; CHO-hMOR cell membranes): 0.96 | Ki (delta opioid receptor): 272 nM and 67.9 nM | EC50 ([2]; delta GTPγS binding EC50 (nM)): 30.3 nM | delta GTPγS binding Rel Eff [2]: 1.03

O=C(NCc1ccccc1)c1cccc2c1Oc1ccccc1C2=C1CC2CCC(C1)N2 [Cpd 13, 9-(8-Azabicyclo[3.2.1]oct-3-ylidene)-9H-xanthene-4-carboxylic acid benzylamide]
Ki (mu opioid receptor): 15 nM and 12.7 nM | EC50 [1]: 717 nM | mu GTPγS binding Rel Eff ([1]; CHO-hMOR cell membranes): 0.67 | EC50 ([2]; delta GTPγS binding EC50 (nM)): 5.68 nM | delta GTPγS binding Rel Eff [2]: 0.87

O=C(NCCc1ccccc1)c1cccc2c1Oc1ccccc1C2=C1CC2CCC(C1)N2 [Cpd 14, 9-(8-Azabicyclo[3.2.1]oct-3-ylidene)-9H-xanthene-4-carboxylic acid phenethyl-amide]
Ki (mu opioid receptor): 44 nM and 36.2 nM | EC50 [1]: 997 nM | mu GTPγS binding Rel Eff ([1]; CHO-hMOR cell membranes): 0.54 | EC50 ([2]; delta GTPγS binding EC50 (nM)): 10.4 nM | delta GTPγS binding Rel Eff [2]: 0.92

Oc1cccc2c1Oc1ccccc1C2=C1CCNCC1 [Cpd 16, 9-Piperidin-4-ylidene-9H-xanthen-4-ol]
Ki (mu opioid receptor): 776 nM | Ki (delta opioid receptor): 15.1 nM | EC50 ([2]; delta GTPγS binding EC50 (nM)): 964 nM

CN1C2CCC1CC(=C1c3ccccc3Oc3c(O)cccc31)C2 [Cpd 19, 9-(8-Methyl-8-azabicyclo[3.2.1]oct-3-ylidene)-9H-xanthen-4-ol]
Ki (mu opioid receptor): 372 nM | EC50 [1]: > 10000 nM | Ki (delta opioid receptor): 28.3 nM | EC50 ([2]; delta GTPγS binding EC50 (nM)): 768 nM

Oc1cccc2c1Oc1ccccc1C2=C1CC2CCCC(C1)N2 [Cpd 20, 9-(9-Azabicyclo[3.3.1]non-3-ylidene)-9H-xanthen-4-ol]
Ki (mu opioid receptor): 32.6 nM | EC50 [1]: 7080 nM | Ki (delta opioid receptor): 20.2 nM | EC50 ([2]; delta GTPγS binding EC50 (nM)): 180 nM

O=CNc1cccc2c1Oc1ccccc1C2=C1CC2CCC(C1)N2 [Cpd 44, N-[9-(8-Azabicyclo[3.2.1]oct-3-ylidene)-9H-xanthen-4-yl]-formamide]
Ki (mu opioid receptor): 45.2 nM | Ki (delta opioid receptor): 19.2 nM | EC50 ([2]; delta GTPγS binding EC50 (nM)): 7.03 nM

NC(=O)c1cccc2c1Sc1ccccc1C2=C1CC2CCC(C1)N2 [Cpd 63, 9-(8-Azabicyclo[3.2.1]oct-3-ylidene)-9H-thioxanthene-4-carboxylic acid amide]
Ki (mu opioid receptor): 3.31 nM | Ki (delta opioid receptor): 0.71 nM | EC50 ([2]; delta GTPγS binding EC50 (nM)): 2.7 nM
